Data reported in PubChem BioAssay AID179 (DTP/NCI, 2004).
Values joined by “and” are separate entries in the source; they are usually repeats but may differ in a detail not shown here. Equal entries are not always repeated. Active and inactive are the calls of the source.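 Rule for the calls: active = compounds giving half or more protection of infected cells from virus-caused growth loss, again on retest; inactive = the rest.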 Where a SMILES comes first, the peptide text is derived from it.

Test system: CEM cells HIV-1 protection, formazan growth assay
Test: NCI AIDS Antiviral Assay
Conditions: for IC50: measured here: growth of uninfected CEM cells
Outline: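 Soluble formazan readout of cell growth; CEM cells ± HIV-1; 5 drug concs. ≥50% protection → retest; ≥50% again = moderately active; reproducible 100% = confirmed active.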

Structure (SMILES)	EC50	IC50	outcome
C1#CCCCCCCC#CCCCCC1.[C-]#[O+].[C-]#[O+].[C-]#[O+].[C-]#[O+].[C-]#[O+].[C-]#[O+].[C-]#[O+].[C-]#[O+].[C-]#[O+].[C-]#[O+].[C-]#[O+].[C-]#[O+].[Co].[Co].[Co].[Co]	> 2.57 µM	> 2.57 µM	–
CC(C)(C)OC(=O)NC(Cc1ccc(OCc2ccccc2)cn1)C(=O)O (centres undefined)	> 200 µM	> 200 µM	–
CC(=O)NNc1nc(C)c(C(=O)NNC(=O)C(=O)Nc2ccc(C)c(C)c2)s1	> 170 µM	31.6 µM	–
CC(=O)Nc1ccc(S(=O)(=O)N/N=C(/C)C2CCOC2=O)cc1 (centres undefined)	> 741 µM	> 741 µM	–
C=CCNC(=O)CN1NN=C(c2ccccc2)N1	> 107 µM	93.3 µM	–
COc1cc(-c2ccc(NC(=O)SCCC(=O)O)cc2OC)ccc1NC(=O)SCCC(=O)O	–	–	inactive
CCOC(=O)Cn1c(=O)n(C)c(=O)c2[nH]cnc21	> 1000 µM	> 1000 µM	–
O=C(N/N=C/c1cccc([N+](=O)[O-])c1)C(=O)N/N=C/c1cccc([N+](=O)[O-])c1	> 100 µM	> 100 µM	–
CCCCSc1ccc2n(C)c(-c3ccc(/C=N\NC(=O)c4ccc(C(=O)N/N=C\c5ccc(-c6c[n+]7cc(SCCCC)ccc7n6C)cc5)cc4)cc3)c[n+]2c1	3.24 µM	6.31 µM	–
Cc1n[nH]c2ccccc2c1=O	> 676 µM	490 µM	–
CN(C)c1nc2ccccc2[nH]1	–	–	inactive
CC(=O)c1ccc([Se][Se]c2ccc(C(C)=O)cc2)cc1	> 18.2 µM	3.72 µM	–
O=C(OCn1ncc2ccc([N+](=O)[O-])cc21)c1ccc(Cl)c(Cl)c1	> 200 µM	129 µM	–
O=Cc1ccc(-c2ccc(S(=O)(=O)O)cc2)o1	> 200 µM	93.3 µM	–
COC1/C=C/OC2(C)Oc3c(C)c(O)c4c(O)c(c(/C=N/N5CCCCC5)c(O)c4c3C2=O)NC(=O)C(C)=C/C=C/C(C)C(O)C(C)C(O)C(C)C(OC(C)=O)C1C (centres undefined)	> 200 µM	10.2 µM	–
Cc1nc(N)[nH]c(=O)c1CCCNc1ccc(C(=O)NC(CCC(=O)O)C(=O)O)cc1 (centres undefined)	> 200 µM	2.75 µM	–
c1ccc(-c2ccc(-c3cc4ccccc4[nH]3)cc2)cc1	> 200 µM	> 200 µM	–
COC(=O)Cc1c2n(c3ccccc13)C(=O)N1c3ccccc3C(CC(=O)OC)C21 (centres undefined)	> 200 µM	> 200 µM	–
CCSc1nc(=[N+]2CCCC2)ss1	–	–	inactive
Cc1cccc(C)c1NC(=O)CCC/C(CC(=O)c1ccc(F)cc1)=N\NC(=O)C(=O)NN	> 148 µM	> 148 µM	–
C/C(CC1SCCCS1)=C(/C)CC1SCCCS1	> 200 µM	> 200 µM	–
Cc1ccc(-n2cc([Si](C)(C)C)nn2)s1	> 200 µM	123 µM	–
O=C(CCC(=O)Nc1ccc(Cl)c(Cl)c1)CC(=O)c1ccc(Cl)cc1	–	–	inactive
CCOP(=O)(OCC)C1CC(O)CN1OC(=O)C(C)(C)C (centres undefined)	> 200 µM	> 200 µM	–
CC(C)SC(NC(=O)C1C(C)(C)CCC1(C)C)C(=O)O (centres undefined)	> 200 µM	> 200 µM	–
[N-]=[N+]=C1CNC(=O)NC1=O	> 200 µM	30.2 µM	–
COc1ccc(C(=O)CC(c2ccccc2)[C@H]2C(c3ccc(OC)cc3)=Nc3c(nc(SC)n(C)c3=O)NC2c2ccccc2)cc1 (some centres undefined)	> 200 µM	19.1 µM	–

Structure (SMILES)	EC50	IC50	outcome
C[N+]12CN3CN(CP(C3)C1)C2	> 832 µM	–	–
Cc1ccc(S(=O)(=O)C2=c3nc4ccccc4cc3=C3C(=O)c4ccccc4C(=O)C32)cc1 (centres undefined)	> 21.9 µM	> 21.9 µM	–
CCC[CH2][Sn]([CH2]CCC)([O]C(=O)c1cc(OC)c(OC)c(OC)c1)[O]C(=O)c1cc(OC)c(OC)c(OC)c1	> 11 µM	1.45 µM	–
CC(C)CC(NC(=O)C(Cc1ccc(O)cc1)NC(=O)C(CO)NC(=O)C(CCC(=O)O)NC(=O)C1CCCN1C(=O)C(CC(C)C)NC(=O)C(C)NC(=O)CNC(=O)C(N)CCC(=O)O)C(=O)NC(Cc1c[nH]c2ccccc12)C(=O)O (centres undefined) (H-EGALPESYLW-OH; configuration not given here)	–	–	inactive
CC(=O)Oc1ccccc1C(=O)Nc1ccc(S(=O)(=O)c2ccc(NC(=O)c3ccccc3OC(C)=O)cc2)cc1	> 200 µM	> 200 µM	–
N#Cc1c(-c2cccc3ccccc23)c2c([nH]c1=S)CCCC2	> 79.4 µM	34.7 µM	–
O=C(Nc1ccc(N=Nc2ccc(S(=O)(=O)O)cc2)cc1)c1ccc(N=Nc2c(S(=O)(=O)O)cc(O)c3c(NC(=O)c4ccccc4)cc(S(=O)(=O)O)cc23)cc1	–	–	active
COc1ccc(Nc2nc3ccccc3nc2C(=O)O)cc1OC	> 200 µM	85.1 µM	–
CC(C)/C(Cl)=N\OC(=O)Nc1ccc(F)cc1	–	–	inactive
OC[C@H]1S[C@H](c2ccccc2)C[C@H]1O	> 200 µM	> 200 µM	–
CCCCCCCCCCCCc1ccsc1-c1ccc(-c2ccc(-c3sccc3CCCCCCCCCCCC)s2)s1	> 25.1 µM	> 25.1 µM	–
C#CC(O)/C=C/CCCCCCCCC/C=C/CCCCCCCCC/C=C/C(O)C#C (centres undefined)	–	–	inactive
CCCOc1cnc([C@H]2CCC3[C@@H]4CC=C5C[C@@H](OC(C)=O)CC[C@]5(C)C4CC[C@@]32C)s1 (some centres undefined)	> 55 µM	> 55 µM	–
COc1cccc(CCCCCCCC(=O)O)c1	> 200 µM	> 200 µM	–
CCOCC(/C=N/N=C(N)N)=N\N=C(N)N	> 759 µM	> 759 µM	–
Nc1ccc2c3c(ccc([N+](=O)[O-])c13)CC2	> 200 µM	102 µM	–
N#C/C(=C(/c1ccccc1)c1ccccn1)c1ccc(Cl)cc1	> 2 µM	1 µM	–
O=S(Cc1ccccc1)c1ccccc1Cn1cccc1 (centres undefined)	> 200 µM	158 µM	–
CCCCN1CCC(O)(c2cc(C(=O)O)[nH]c2-c2cc(C)no2)C1=O (centres undefined)	> 200 µM	70.8 µM	–
O=C1CCC(NC(=O)c2ccccc2)C(=O)N1 (centres undefined)	> 200 µM	> 200 µM	–
CSc1ccccc1NC1=NCCO1	> 200 µM	> 200 µM	–
CC1=CCC(O)C=CC(C)C(O)C(C)C=C(C)C(=O)c2c(O)c(C)cc3c2C(=O)C(N)=C(NC(=O)/C=C\C=C/C=CC(C)C(O)CC1=O)C3=O (centres undefined)	> 182 µM	97.7 µM	–
CCOC(=O)/C=C(/c1cc(C)[nH]c1C)N(CC)CC	> 200 µM	> 200 µM	–
COc1cccc(NC(=O)/C(CC(=O)CC(c2ccccc2)c2c(O)c3ccccc3oc2=O)=N\NC(C)(C)C)c1OC (centres undefined)	> 85.1 µM	70.8 µM	–
O=C1c2c(/C=C/c3ccc(Cl)c(Cl)c3)nc3ccccc3c2C(=O)N1CCN1CCCCC1	> 7.59 µM	> 7.59 µM	–
OC1/C(=C/c2ccccc2)CNC/C1=C\c1ccccc1 (centres undefined)	> 129 µM	79.4 µM	–
CC(C(N)=O)N(C)C(=O)c1cnc2ccccc2c1 (centres undefined)	–	–	inactive

Structure (SMILES)	EC50	IC50	outcome
COc1cc(CC(C)N[C@@H](C)c2ccccc2)cc(OC)c1 (some centres undefined)	> 200 µM	18.6 µM and 64.6 µM	–
CC(C)(C)OC(=O)CC(NC(=O)OC(C)(C)C)C(=O)Oc1ccc([N+](=O)[O-])cc1 (centres undefined)	> 200 µM	> 200 µM	–
Cc1ccccc1NP1(=O)OCCCN1Cc1ccc(Cl)c(Cl)c1 (centres undefined)	–	–	inactive
CSC[C@H](NC(=O)COc1cccc2cnccc12)C(=O)NC(Cc1ccccc1)C(O)C(=O)N1CSC[C@H]1C(=O)NC(C)(C)C (some centres undefined)	0.0513 µM	10 µM	–
CS(=O)(=O)OCCCCOS(C)(=O)=O	> 204 µM	> 204 µM	–
O=c1[nH]c(=S)nc2nc3c4ccc[nH]c4c4ccccc4c3nc12	> 200 µM	58.9 µM	–
CCOC(=O)C(=O)/C(=C/N1C(=O)CC(=O)NC1=S)C(=O)OCC	> 200 µM	> 200 µM	–
Cc1ccc(C(=O)Nc2ccc(S(=O)(=O)[O-])c3cc(S(=O)(=O)[O-])cc(S(=O)(=O)[O-])c23)cc1NC(=O)c1cccc(NC(=O)Nc2cccc(C(=O)Nc3cc(C(=O)Nc4ccc(S(=O)(=O)[O-])c5cc(S(=O)(=O)[O-])cc(S(=O)(=O)[O-])c45)ccc3C)c2)c1.[Ga]	> 759 µM	42.7 µM	–
C[N+]1([O-])C2CCC1CC(OC(=O)C(CO)c1ccccc1)C2 (centres undefined)	> 200 µM	> 200 µM	–
c1ccc2[nH]c(CNc3ccc(C4C[Se]N=N4)cc3)nc2c1 (centres undefined)	> 20.4 µM	> 20.4 µM	–
CCC[CH2][Sn]([CH2]CCC)([O]C(=O)c1cc(OC)c(OC)cc1OC)[O]C(=O)c1cc(OC)c(OC)cc1OC	> 39.8 µM	0.776 µM	–
CC(=O)OC1C=CN(C(C)=O)C(SC(C)(C)C)C1(C)O (centres undefined)	> 200 µM	> 200 µM	–
CCOC(=O)CCC(NC(=O)OCc1ccccc1)C(=O)NNC(=O)OC(C)(C)C (centres undefined)	> 200 µM	> 200 µM	–
Cc1ccccc1OCC1COC(c2ccc(Cl)cc2)O1 (centres undefined)	> 200 µM	> 200 µM	–
OC1C#CCSCC#C/C=C\1 (centres undefined)	> 200 µM	10.5 µM	–
CCOC(=O)C(CCCCS(=O)(=O)O)C(=O)OCC	> 200 µM	> 200 µM	–
CN(C)c1nc(=NCc2ccccc2)ss1	> 200 µM	10.2 µM	–
COc1cc(-c2cc(=O)c3ccc(O)cc3o2)cc(OC)c1OC	> 200 µM	> 200 µM	–
COc1ccc(N2C(=O)C3c4[nH]c5ccc(OC)cc5c4C4CCC(C(C)C)CC4C3C2=O)cc1 (centres undefined)	> 50.1 µM	> 50.1 µM	–
COc1cc2ccc3c4c(OC)cc(OC)c(OC)c4c(=O)n(C)c3c2cc1OC	> 45.7 µM	3.63 µM	–
CC1(C)OC(COP2OCCO2)[C@H](COP2OCCO2)O1 (some centres undefined)	> 200 µM	> 200 µM	–
COc1ccc(-c2cc3c(nn2)-c2ccccc2C3=O)cc1	> 100 µM	> 100 µM	–
CN(C)c1ccc(/C=C/c2ccnc3c(O)cccc23)cc1	> 18.2 µM	1.05 µM	–
CCCCCCCCCCCCCC(=O)O[C@H]1CC[C@H](NC(=O)[C@H](OC)[C@H](O)[C@@H](O)[C@H](O)/C=C/C(C)C)C(=O)NC1	> 2 µM	0.00661 µM	–
NNC(N)Nc1ccccc1 (centres undefined)	> 200 µM	> 200 µM	–
NC(=O)CNC(=O)C1CC(O)CN1C(=O)OCc1ccccc1 (centres undefined) (HELM PEPTIDE1{[O=C(OCc1ccccc1)[*:2]].[O=C(C1CC(O)CN1[*:1])[*:2]].G.[am]}$$$$V2.0)	> 200 µM	> 200 µM	–
